Source: patent US5807745A, “Method of inhibiting PADGEM-mediated or ELAM-1-mediated leukocyte adhesion using an inhibitor comprising a Le^x core component” (New England Medical Center Hospitals, Inc., priority 1995, dated 1998)

Assays:
[1] = system: PADGEM-mediated binding of HL60 cells to CHO-PADGEM transfectants; assay: CHO-PADGEM adhesion assay with tritiated HL60 cells; assay type: cell-based; conditions: done once only
Description: (§1) Chinese hamster ovary cells (CHO-DUKX) were transfected with cDNA encoding ELAM or PADGEM to make CHO-ELAM and CHO-PADGEM cells. Each of the following cell types, Chinese hamster ovary cells-DUKX (CHO-DUKX), Chinese hamster ovary cells transfected with cDNA for ELAM (CHO-ELAM) and Chinese hamster ovary cells transfected with cDNA for PADGEM (CHO-PADGEM), were separately plated at a density of 6×10^4 cells per milliliter of medium into Costar 48 well culture plates. On the following day, HL60 cells in culture were sedimented by centrifugation and resuspended in medium (RPMI, 10% fetal calf serum) to a density of 5×10^5 cells/ml. Tritiated thymidine (5 μCi per milliliter) was added to the HL60 cell suspension and the cells were grown overnight. The following day the HL60 cells were washed thrice in serum free RPMI and resuspended in a volume of 5 mls of RPMI. After assuring that the free tritium in the cell suspension is no more than 10% of the cell associated tritium, the cell count of the cell suspension was established and the cell density was adjusted to 1×10^6 cells per milliliter.
(§2) To perform the assay medium was aspirated from the CHO cells, CHO-ELAM cells and CHO-PADGEM cells. The wells containing these cells were rinsed with 1 ml of serum free RPMI. HL60 cells were preincubated for 10 minutes with the test sugar at the concentrations indicated. Aliquots of these HL60 cells (100,000 to 300,000 cells) were then added to individual wells containing CHO cells of the various types and the two cell populations incubated together for 30 minutes at room temperature. Unbound HL60 cells were removed by aspiration and the wells were washed thrice with serum free RPMI. The adherent CHO cells and any bound HL60 cells were detached from the surface of the wells with 250 μl of phosphate buffered saline containing 1 mM EDTA. An aliquot of the detached cells (200 μl) was analyzed for tritium content in a β-scintillation counter. The level of nonspecific binding of tritiated HL60 cells was taken as the level of binding seen in the wells containing the CHO-DUKX cells (parent cell line of CHO-PADGEM and CHO-ELAM transfectants). This value was subtracted from the level of tritiated HL60 cells bound in wells containing CHO-ELAM or CHO-PADGEM cells. The decrease in binding induced by the presence of the sugar was determined by comparing the level of binding of HL60 cells in the presence of the sugar to that observed in its absence.
(§3) Additional sugars were tested for inhibition of PADGEM- and ELAM-mediated interactions using the CHO-PADGEM and CHO-ELAM adhesion assay described in Example 2. The following sugars were tested at a single concentration: […]

[2] = system: ELAM-mediated binding of HL60 cells to CHO-ELAM cells; assay: CHO-ELAM adhesion assay with tritiated HL60 cells; assay type: cell-based; conditions: Homo sapiens, HL-60, done once only, read-out: decrease of ELAM-mediated binding; for inhibition at 250 µM: 0.25 mM; for inhibition at 500 µM: 0.5 mM
Description: as §1, §2, §3

[3] = system: adherence of activated platelets to neutrophils (PADGEM-mediated); assay: Phase-contrast cell adhesion assay: thrombin-activated platelets with neutrophils; assay type: cell-based, human; conditions: LNF isomers; direct cell adhesion assay; FIG. 6
Protocol: Platelets were isolated by gel filtration from fresh anticoagulated blood obtained from normal human donors (Hsu-Lin et al., J. Biol. Chem., 259: 9121-9126 (1984)). Activated platelets were prepared by incubating cells without stirring for 20 minutes at 22° C. with thrombin at a final concentration of 0.25 U/ml. Fresh platelets were used in cell adhesion assays within 30 minutes of preparation.
Neutrophils were prepared by the method of English and Anderson (J. Immunol. Method, 5: 249-252 (1974)). The neutrophil preparations were greater than 95% pure by light microscopy. Monocytes were prepared by washing the mono-nuclear leukocyte fraction twice with human serum-5 mM EDTA and incubating the cells in RPMI 1640--10% fetal calf serum in sterile […] dishes for 2 hours at 37° C. The dishes were washed three times with PBS at 37° C. to remove nonadherent cells. PBS at 0° C. was added, and the cells were incubated at 4° C. for 1 hour. Adherent cells were gently detached with a rubber policeman, washed in PBS, and resuspended in RPMI 1640--1% fetal calf serum. Lymphocytes were obtained by washing the nonadherent cells with PBS and resuspending these cells in RPMI 1640--1% fetal calf serum. The purity of these preparations was established to be greater than 90% by light microscopy using Wright esterase and nonspecific esterase stains.
Twenty microliters of platelet suspension (2×10^8 /ml) was mixed with 20 μl of cell suspension (2×10^6 /ml) and incubated for 20 minutes at 22° C. in a microfuge tube. An aliquot of the cell suspension was then in a Neubauer chamber and evaluated by light microscropy using an Olympus model BH-2 microscope. Three samples from each assay were evaluated by counting 200 cells and scoring the percentage of cells with two or more adherent platelets (Jungi et al., Blood 67: 629-636 (1986)). Antibody inhibition studies were performed by preincubating cells (20 μl; 3×10^6 /ml) with 20 μl of antibody solution for 20 minutes at 22° C. Subsequently, 20 μl of platelet suspension was added, and the mixture was incubated for 20 minutes at 22° C. Samples were analyzed as above.
To identify the PADGEM recognition site on leukocytes that mediates the binding of activated platelets, monoclonal antibodies directed at various antigens on the surface of monocytes and neutrophils were tested for their ability to inhibit the interaction of these cells with activated platelets, using the phase-contrast cell adhesion assay described in Example 2 (FIG. 1 and FIG. 2). The antibodies were raised against various leukocytes and myeloid cell lines and are directed at leukocyte antigens. […] The percentage of cells displaying two or more adherent platelets was determined as described in Example 2.

[4] = system: binding of HL60 cells to COS/PADGEM cells; assay: COS cell-PADGEM adhesion assay with labelled HL60 cells; assay type: cell-based, human; conditions: for inhibition of binding of radiolabeled HL60 cells to COS/PADGEM cells: 111In activity, FIG. 7; for inhibition of binding of fluorescently labeled HL60 cells to COS/PADGEM cells: scored morphologically in a blind assay
Protocol: COS cells (1×10^5) were transfected with 40 μg of the resulting PADGEM expression vector by calcium phosphate precipitation. Coverslips (12×12 mm) were added to each culture. After 48 hours of growth in DMEM--10% fetal calf serum, the COS cells were confluent.
HL60 cells (1×10^7), maintained in culture, were washed and resuspended in 0.5 ml of serum-free RPMI 1640. The cells were labeled with 270 μCi of ^111 In oxine (Callow et al., Arch. Surg., 117: 1447-1455 (1982)) and 10 μg of bis-carboxyethyl-carboxyfluorescein (Kolber et al., J. Immunol. Meth., 108: 255-264 (1988)) by incubation at 37° C. for 30 minutes. After washing with RPMI 1640--1% bovine serum albumin, the cells (1×10^6) were incubated with the coverslips containing confluent COS cell transfectants, in the presence or absence of LNF isomers, for 20 minutes at 37° C. The coverslips were washed with RPMI 1640, and duplicate coverslips were assayed for ^111 In activity. Alternatively, samples were evaluated for HL60 cell adherence by fluorescence and phase-contrast microscopy using a Zeiss Axioscope microscope in a blind assay. Inhibition of the binding of COS/PADGEM cells to U937 cells by the antibody 80H5 was performed in experiments identical to the procedure described above.
The results of a COS cell-PADGEM adhesion assay, in which the binding of ^111 In and bis-carboxyethyl-carboxyfluorescein-lableled HL60 cells to COS/PADGEM cells was monitored by assaying ^111 In activity (Example 2), are shown in FIG. 7. […] The inhibitory effect of LNF II was more apparent when the LNF to PADGEM ratio was high. […] It is possible that minor contamination of the LNF II preparation with LNF III can account for the inhibitory activity observed.
The inhibitory effects of LNF I, II, and III on the interaction of HL60 cells and COS/PADGEM was also studied morphologically in a blind assay. In these experiments, the binding of fluorescently labeled HL60 cells to COS/PADGEM cells was scored (Example 2).

[5] = system: PADGEM; conditions: literature reports; cited from earlier work

CC(=O)NC1C(O)CC(OC2C(O)C(CO)OC(OC3C(CO)OC(O)C(O)C3OC3OC(C)C(O)C(O)C3O)C2O)(C(=O)O)OC1C(O)C(O)CO (centres unmarked) [3'-sialyl-3-fucosyllactose, NeuAcα2-3Galβ1-4[Fucα1-3]Glc]
inhibition of PADGEM-mediated binding of HL60 cells to CHO-PADGEM transfectants ([1]; 0.25 mM): none of the four sugars tested appreciably inhibited
inhibition at 250 µM [2]: 50 to 60%

CC(=O)NC1C(O)CC(OC2C(O)C(CO)OC(OC3C(CO)OC(O)C(O)C3O)C2O)(C(=O)O)OC1C(O)C(O)CO (centres unmarked) [3'-sialyllactose, NeuAcα2-3Galβ1-4Glc]
inhibition of PADGEM-mediated binding of HL60 cells to CHO-PADGEM transfectants ([1]; 0.5 mM): none of the four sugars tested appreciably inhibited
inhibition at 500 µM [2]: ≤ 10%

C[C@@H]1O[C@@H](O[C@H]2[C@H](O[C@@H]3O[C@H](CO)[C@H](O)[C@H](O)[C@H]3O)[C@@H](CO)OC(O)[C@@H]2O)[C@@H](O)[C@H](O)[C@@H]1O (some centres unmarked) [3-fucosyllactose, Galβ1-4[Fucα1-3]Glc]
inhibition of PADGEM-mediated binding of HL60 cells to CHO-PADGEM transfectants ([1]; 0.25 mM): none of the four sugars tested appreciably inhibited
inhibition at 250 µM [2]: ≤ 10%

CC(=O)NC1C(O)CC(OCC2OC(OC3C(CO)OC(O)C(O)C3O)C(O)C(O)C2O)(C(=O)O)OC1C(O)C(O)CO (centres unmarked) [6'-sialyllactose, NeuAcα2-6Galβ1-4Glc]
inhibition of PADGEM-mediated binding of HL60 cells to CHO-PADGEM transfectants ([1]; 0.5 mM): none of the four sugars tested appreciably inhibited
inhibition at 500 µM [2]: ≤ 10%

CC(=O)N[C@H]1[C@H](O[C@H]2[C@@H](O)[C@@H](CO)O[C@@H](O[C@H]3[C@H](O)[C@@H](O)C(O)O[C@@H]3CO)[C@@H]2O)O[C@H](CO)[C@@H](O)[C@@H]1O[C@@H]1O[C@H](CO)[C@H](O)[C@H](O)[C@H]1O[C@@H]1O[C@@H](C)[C@@H](O)[C@@H](O)[C@@H]1O (some centres unmarked) [LNF I, Fucα1-2Galβ1-3GlcNAcβ1-3Galβ1-4Glc]
inhibitory activity on adherence of activated platelets to neutrophils [3]: neither LNF I (open squares) nor LNF II (closed circles) had inhibitory activity
inhibition of binding of radiolabeled HL60 cells to COS/PADGEM cells [4]: did not inhibit
inhibition of binding of fluorescently labeled HL60 cells to COS/PADGEM cells [4]: no inhibitory activity

CC(=O)N[C@H]1[C@H](O[C@H]2[C@@H](O)[C@@H](CO)O[C@@H](O[C@H]3[C@H](O)[C@@H](O)C(O)O[C@@H]3CO)[C@@H]2O)O[C@H](CO)[C@@H](O[C@@H]2O[C@@H](C)[C@@H](O)[C@@H](O)[C@@H]2O)[C@@H]1O[C@@H]1O[C@H](CO)[C@H](O)[C@H](O)[C@H]1O (some centres unmarked) [LNF II, Galβ1-3(Fucα1-4)GlcNAcβ1-3Galβ1-4Glc]
inhibitory activity on adherence of activated platelets to neutrophils [3]: neither LNF I (open squares) nor LNF II (closed circles) had inhibitory activity
inhibition of binding of radiolabeled HL60 cells to COS/PADGEM cells [4]: only a small inhibitory effect
inhibition of binding of fluorescently labeled HL60 cells to COS/PADGEM cells [4]: no inhibitory activity

fucoidin
inhibition of PADGEM-mediated binding of activated platelets to leukocytes [5]: inhibited

heparin
inhibition of PADGEM-mediated binding of activated platelets to leukocytes [5]: inhibited

B1: purified PADGEM: purified platelet activation dependent granule-external membrane protein (protein, UniProt P16109 42-830, looked up)
P-selectin: WTYHYSTKAYSWNISRKYCQNRYTDLVAIQNKNEIDYLNKVLPYYSSYYWIGIRKNNKTWTWVGTKKALTNEAENWADNEPNNKRNNEDCVEIYIKSPSAPGKWNDEHCLKKKHALCYTASCQDMSCSKQGECLETIGNYTCSCYPGFYGPECEYVRECGELELPQHVLMNCSHPLGNFSFNSQCSFHCTDGYQVNGPSKLECLASGIWTNKPPQCLAAQCPPLKIPERGNMTCLHSAKAFQHQSSCSFSCEEGFALVGPEVVQCTASGVWTAPAPVCKAVQCQHLEAPSEGTMDCVHPLTAFAYGSSCKFECQPGYRVRGLDMLRCIDSGHWSAPLPTCEAISCEPLESPVHGSMDCSPSLRAFQYDTNCSFRCAEGFMLRGADIVRCDNLGQWTAPAPVCQALQCQDLPVPNEARVNCSHPFGAFRYQSVCSFTCNEGLLLVGASVLQCLATGNWNSVPPECQAIPCTPLLSPQNGTMTCVQPLGSSSYKSTCQFICDEGYSLSGPERLDCTRSGRWTDSPPMCEAIKCPELFAPEQGSLDCSDTRGEFNVGSTCHFSCDNGFKLEGPNNVECTTSGRWSATPPTCKGIASLPTPGVQCPALTTPGQGTMYCRHHPGTFGFNTTCYFGCNAGFTLIGDSTLSCRPSGQWTAVTPACRAVKCSELHVNKPIAMNCSNLWGNFSYGSICSFHCLEGQLLNGSAQTACQENGHWSTTVPTCQAGPLTIQEALTYFGGAVASTIGLIMGGTLLALLRKRFRQKDDGKCPLNPHSHLGTYGVFTNAAFDPSP
inhibition of PADGEM-mediated binding of activated platelets to leukocytes [5]: inhibited
